Measured values: patent US20030121069A1, “Disruption of the phosphodiesterase 10 gene” (Pfizer Inc., priority 2001, published 2003)
Where two headings read alike, the source gives them in different places.

Key:
PDE10A+/+ and −/− mice = experiment: Conditioned avoidance responding in PDE10A+/+ and −/− mice; settings: for ED50: Mus musculus
From the text: In the conditioned avoidance paradigm, animals are trained to move from a dark chamber in a shuttle box to a lighted chamber upon presentation of a conditioned stimulus in order to avoid a foot shock.
The conditioned avoidance shuttle chambers consist of individual Plexiglas behavior chambers (Coulbourn Instruments); each chamber divided by a guillotine door into two sides enclosed in sound attenuating cabinets. The Plexiglas chambers are fitted with metal grid floors, which are equipped with scrambled/constant current shockers. Mice are trained to avoid the onset of footshock (0.6 miliampere) by moving to the opposite side of the chamber upon activation of house lights, que lights, and the opening of the guillotine door, all of which occur 5 seconds prior to the foot shock. A computer program is used to record the number of successful avoidance responses (animals cross before onset of shock), as well as the number of escapes (where animals receive the foot shock and then cross), escape failures (where animals receive the foot shock yet still fail to cross), and the latencies to avoid (max 5 sec.) or escape (max.10 sec.) Thirty trials are completed per daily session, and inter-trial intervals are 15 seconds with the guillotine door closed. […] Vehicle treatment is performed one day every week and statistical analysis is done comparing each drug treatment on separate days vs. the vehicle treatment that week. Testing is performed during the lights on period of the light/dark cycle, typically between 8 am and 11 am. The data is analyzed using a paired t-test.

PDE10A [1] = biological target: T1, PDE10A (Mus musculus, UniProt Q8CA95); experiment: cGMP level in striatal and cortical extracts of PDE10A+/+ and −/− mice after Papaverine (enzyme immunoassay); assay type: in vivo; settings: PDE10A+/+ mice, 32 mg/kg intraperitoneally, 15 minutes, vs vehicle
T1 construct: from tissue; host or cells: mouse brain in vivo (striatum and cortex); DBA/1LacJ-derived PDE10A +/+ and −/− mice
T1 sequence (Q8CA95 1-779 isoform Q8CA95-2): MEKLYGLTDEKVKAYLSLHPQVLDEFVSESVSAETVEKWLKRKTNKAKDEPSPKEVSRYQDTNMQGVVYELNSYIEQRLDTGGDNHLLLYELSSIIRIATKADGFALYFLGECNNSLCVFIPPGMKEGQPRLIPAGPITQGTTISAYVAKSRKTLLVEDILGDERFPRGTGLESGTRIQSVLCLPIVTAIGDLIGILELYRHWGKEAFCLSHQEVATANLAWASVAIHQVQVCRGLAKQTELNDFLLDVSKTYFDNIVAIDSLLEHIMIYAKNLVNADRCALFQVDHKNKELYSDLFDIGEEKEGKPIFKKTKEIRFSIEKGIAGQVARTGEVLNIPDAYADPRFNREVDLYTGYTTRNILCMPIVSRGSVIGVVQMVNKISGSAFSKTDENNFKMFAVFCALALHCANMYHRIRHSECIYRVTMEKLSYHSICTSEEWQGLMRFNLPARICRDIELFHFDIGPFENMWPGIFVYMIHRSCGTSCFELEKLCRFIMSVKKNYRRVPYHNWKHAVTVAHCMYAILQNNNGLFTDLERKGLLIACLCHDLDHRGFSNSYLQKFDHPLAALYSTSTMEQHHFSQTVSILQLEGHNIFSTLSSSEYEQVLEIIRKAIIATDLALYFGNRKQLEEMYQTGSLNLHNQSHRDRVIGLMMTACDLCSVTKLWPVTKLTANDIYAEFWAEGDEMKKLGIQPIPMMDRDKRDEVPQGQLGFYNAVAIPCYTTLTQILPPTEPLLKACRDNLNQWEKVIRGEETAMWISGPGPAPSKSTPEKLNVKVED
Protocol: (§1) Fifteen minutes afterwards, mice were euthanized by focused-beam microwave irradiation of the head (2 second exposure in a Litton Systems 70/50 microwave, model BN-K2, General Medical Engineering Corp., Peabody, Mass.) to prevent enzymatic degradation of cyclic nucleotides. Striatal and cortical regions were isolated and stored at −80° C. until analysis. Samples were homogenized in 0.5 N HCl and then centrifuged at 20,000×g for 30 minutes. The cGMP concentrations in the supernatants were determined using enzyme immunoassay kits (Cayman Chemical, Ann Arbor, Mich., USA) according to the manufacturer's instructions.

PDE10A [2] = experiment: as above; assay type: in vivo; settings: PDE10A −/− mice, 32 mg/kg intraperitoneally, 15 minutes, vs vehicle
Protocol: as §1

PDE10A [3] = settings: cited from earlier work
[4] = read-out: ED50, inhibition of conditioned avoidance responding, PDE10A+/+ mice

Row | SMILES | ED50 (PDE10A+/+ and −/− mice; read-out: ED50, inhibition of conditioned avoidance responding, PDE10A −/− mice) [mg/kg] | ED50 (PDE10A+/+ and −/− mice; [4]) [mg/kg] | cGMP level from striatal extracts (PDE10A [1]) | cGMP level in cortical extracts (PDE10A [1]) | striatal cGMP level (PDE10A [2]) | inhibition of conditioned avoidance responding (PDE10A+/+ and −/− mice; PDE10A −/− mice, doses up to 56 mg/kg) | effect on escape failures (PDE10A+/+ and −/− mice; PDE10A+/+ mice, highest dose tested (56 mg/kg)) | Vmax for cGMP over cAMP (PDE10A [3]) | Km (PDE10A [3]; read-out: Km (affinity of PDE10A for substrate)) [µM]
1 | O=C(CCCN1CCC(O)(c2ccc(Cl)cc2)CC1)c1ccc(F)cc1 [Haloperidol] | 0.29 | 0.21 | – | – | – | – | – | – | –
2 | COc1ccc(Cc2nccc3cc(OC)c(OC)cc23)cc1OC [Papaverine] | – | 20.7 | more than two fold elevation | no effect | only a slight increase | failed to inhibit | no effect | – | –
3 | Nc1nc2c(ncn2[C@@H]2O[C@@H]3COP(=O)(O)O[C@H]3[C@H]2O)c(=O)[nH]1 [cGMP, cyclic guanine 3′5′-monophosphate] | – | – | – | – | – | – | – | approximately 5 fold | 3
